For orientation: IC50 means the concentration that inhibits the measured activity by half.

Drawing on patent US10155727B2, “Pyrazoles” (Janssen Pharmaceuticals, Inc., priority 2014, dated 2018), this text covers IC50 and inhibition for 25 compounds.

Assay [1] has as its target hERG receptor (Homo sapiens (Human), UniProt Q12809). The experiment in a line: HERGBD: inhibition of specific [3H]-Dofetilide binding to the hERG receptor. As to the method:
Inhibition of Specific Binding to the hERG—Receptor (HERGBD)
A HEK cell line with stable transfected human ERG receptor was used for the assay. The cells were grown adherently and maintained in DULBECCOS' MEM medium with 10% FBS, 1% non-essential amino acids, 1% Penicillin/Streptomycin and 400 μg/ml G418 (Calbiochem).
For binding assays and membrane preparations the cell culture medium was removed, cells were washed with PBS. Crude membranes for radioligand binding experiments were prepared by scraping the cells off the dishes in ice cold 20 mM HEPES/0.1 mM KCl/pH 7.2. The cell suspension was homogenized on ice (Ultra turrax, 3×20 sec.) and the homogenate was spun for 10 min (1° C., 1000 g, OPTIMA, SW28, 2800 U/min). The supernatant was than centrifuged for 40 min at 100000 g (1° C., OPTIMA, SW28, 23000 U/min). The membrane pellet was re-suspended in 20 mM HEPES/0.1 mM KCl pH 7.2, frozen and stored at −80° C.
After thawing on the day of the assay, the membrane suspension was diluted further with 20 mM HEPES/0.1 mM KCl/pH 7.2.
The incubation mixture of 200 μl contained 1.5 nmol/l 3H-Dofetilide, optimized amount of membrane preparation, 20 mM HEPES/0.1 mM KCl/(pH 7.2) and inhibitor in 1% DMSO. Nonspecific binding was estimated in the presence of […] Dofetilide. The samples were incubated for 90 min. at RT.
Binding was terminated by filtration of the incubated membrane preparations using Filtermat B (Pharmacia, Uppsala Sweden) and a Micro Cell Harvester (Skatron, Lier, Norway). The Filtermat B had been presoaked with 1% polyethylen imine and carefully washed with 0.05 M Tris/HCl-buffer pH=7.7 after the filtration to separate free and bound radioactivity. The filters were counted in a scintillation counter (Betaplate 1205, Berthold, Wildbad, Germany) in order to determine the specific binding of [^3H]-Dofetilide.
The optimal amount of membrane preparation in the assay was determined and optimized for each membrane preparation separately in front of using the membranes in compound testing.
For pipetting of the incubation mixture we routinely use the robot Biomek2000 (Fa. Beckman).
A general note: The hERG channel carries a current that helps repolarise heart muscle cells.

Assay [2] concerns the target rat NR1/NR2B receptor (Rattus norvegicus (Rat), UniProt P35439+Q00960). The experiment in a line: NR2B binding assay: inhibition of specific [3H]-Ifenprodil binding to the rat NR1/NR2B receptor. The following applies: for inhibition at 10 µM: read-out: % INH @ 10 μM; for inhibition at 1 µM: read-out: % INH @ 1 μM. The method, then: Biological Assays Inhibition of Specific Binding to the Rat NR1/NR2B Receptor
Male Wistar rats (180 to 200 g) were killed by suffocation in a CO2 chamber for two minutes. Whole brains without cerebellum were removed and dissected on ice, placed into closed vials and stored at −70° C.
Membrane fractions were prepared and tested using standard techniques. At the time of the assay, 1 g of the brains was placed into 25 ml of 50 mM Tris/10 mM EDTA buffer, pH 7.1, (25 vol. per g of original tissue) and homogenized for 30 sec at 20000 rpm with an Ultraturrax T25 (Jahnke & Kunkel, IKA-Labortechnik, Staufen, Germany).
The supernatant was discarded and the pellet was homogenized on ice for 30 sec at 20000 rpm with an Ultraturrax and again centrifuged at 48000 g for 30 minutes at 4° C. The resultant pellet was resuspended in 25 ml of 50 mM Tris/10 mM EDTA buffer, homogenized for 30 sec with an Ultraturrax, aliquoted, frozen at −70° C. and stored until use.
After thawing on the day of the assay, a 5 ml membrane aliquot was centrifuged at 48000 g for 30 min at 4° C. The pellet was resuspended in 5 ml of 5 mM Tris/1 mM EDTA buffer, pH 7.4, homogenized for 30 sec at 20000 rpm with an Ultraturrax and centrifuged at 48000 g for 30 min at 4° C. This was repeated twice. The final pellet was homogenized in 5 ml of 5 mM Tris/1 mM EDTA buffer at 4° C. with an Ultraturrax and used for the Ifenprodil-binding assay as described in the following.
Nonspecific binding was estimated in the presence of […] CP101.606. The samples were incubated for 60 min. at 4° C.
The incubation was terminated by filtration of the membrane preparations using Filtermat B (Pharmacia, Uppsala Sweden) and a Micro Cell Harvester (Skatron, Lier, Norway). The Filtermat B had been presoaked with 1% polyethylene imine and carefully washed with 50 mM Tris/HCl-buffer pH 7.7 after the filtration to separate free and bound radioactivity.
The optimal amount of membrane preparation in the assay was determined and optimized for each membrane preparation separately before the test.
For pipetting of the incubation mixture the robot Biomek2000 (Fa. Beckman) was used.
For determination of IC50 values the Hill-plot, 2-parameter-model was used.

Where [3] appears, read: [3H]-Dofetilide binding, membranes of HEK cells with human ERG receptor, read-out: IC50.
[4] abbreviates: [3H]-Ifenprodil binding, rat brain membranes.
[5] abbreviates: 10 μM test compound, [3H]-Ifenprodil binding, rat brain membranes.
Where [6] appears, read: 1 μM test compound, [3H]-Ifenprodil binding, rat brain membranes.

Counter-ions that a name gives are not always drawn. Like-named read-outs stand apart in the source and are kept apart here.

Chain of hERG receptor (Q12809 whole entry): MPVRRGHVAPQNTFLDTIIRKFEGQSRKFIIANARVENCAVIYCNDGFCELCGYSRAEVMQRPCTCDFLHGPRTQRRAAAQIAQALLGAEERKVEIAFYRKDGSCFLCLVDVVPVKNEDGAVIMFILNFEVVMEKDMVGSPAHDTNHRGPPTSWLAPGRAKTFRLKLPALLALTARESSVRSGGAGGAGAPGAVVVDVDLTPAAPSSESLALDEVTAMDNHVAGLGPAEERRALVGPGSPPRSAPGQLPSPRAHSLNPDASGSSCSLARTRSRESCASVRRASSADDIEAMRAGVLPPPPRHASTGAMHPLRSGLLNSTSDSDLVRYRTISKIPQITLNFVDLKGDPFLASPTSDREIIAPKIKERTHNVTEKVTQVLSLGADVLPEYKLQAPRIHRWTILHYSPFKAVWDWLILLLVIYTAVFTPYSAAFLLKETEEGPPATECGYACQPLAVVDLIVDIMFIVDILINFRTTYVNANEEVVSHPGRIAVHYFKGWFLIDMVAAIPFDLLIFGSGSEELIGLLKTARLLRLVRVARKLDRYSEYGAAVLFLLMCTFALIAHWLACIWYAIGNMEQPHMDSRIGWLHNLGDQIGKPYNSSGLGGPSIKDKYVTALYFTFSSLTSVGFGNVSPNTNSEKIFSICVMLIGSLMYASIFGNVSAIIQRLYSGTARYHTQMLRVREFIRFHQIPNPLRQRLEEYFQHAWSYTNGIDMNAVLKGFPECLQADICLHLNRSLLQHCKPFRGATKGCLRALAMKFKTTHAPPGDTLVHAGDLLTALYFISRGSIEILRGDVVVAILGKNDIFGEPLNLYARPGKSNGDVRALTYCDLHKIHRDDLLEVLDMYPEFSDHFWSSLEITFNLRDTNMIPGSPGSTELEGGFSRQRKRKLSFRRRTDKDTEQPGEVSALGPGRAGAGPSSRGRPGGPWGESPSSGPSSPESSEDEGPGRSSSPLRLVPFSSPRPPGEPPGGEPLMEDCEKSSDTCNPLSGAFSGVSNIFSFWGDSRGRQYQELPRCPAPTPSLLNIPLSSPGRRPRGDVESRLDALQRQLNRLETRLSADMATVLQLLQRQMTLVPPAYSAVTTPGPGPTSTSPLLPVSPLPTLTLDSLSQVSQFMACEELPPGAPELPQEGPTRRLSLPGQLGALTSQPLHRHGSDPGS
Chain of rat NR1/NR2B receptor (Q00960 27-1482, other chains not shown): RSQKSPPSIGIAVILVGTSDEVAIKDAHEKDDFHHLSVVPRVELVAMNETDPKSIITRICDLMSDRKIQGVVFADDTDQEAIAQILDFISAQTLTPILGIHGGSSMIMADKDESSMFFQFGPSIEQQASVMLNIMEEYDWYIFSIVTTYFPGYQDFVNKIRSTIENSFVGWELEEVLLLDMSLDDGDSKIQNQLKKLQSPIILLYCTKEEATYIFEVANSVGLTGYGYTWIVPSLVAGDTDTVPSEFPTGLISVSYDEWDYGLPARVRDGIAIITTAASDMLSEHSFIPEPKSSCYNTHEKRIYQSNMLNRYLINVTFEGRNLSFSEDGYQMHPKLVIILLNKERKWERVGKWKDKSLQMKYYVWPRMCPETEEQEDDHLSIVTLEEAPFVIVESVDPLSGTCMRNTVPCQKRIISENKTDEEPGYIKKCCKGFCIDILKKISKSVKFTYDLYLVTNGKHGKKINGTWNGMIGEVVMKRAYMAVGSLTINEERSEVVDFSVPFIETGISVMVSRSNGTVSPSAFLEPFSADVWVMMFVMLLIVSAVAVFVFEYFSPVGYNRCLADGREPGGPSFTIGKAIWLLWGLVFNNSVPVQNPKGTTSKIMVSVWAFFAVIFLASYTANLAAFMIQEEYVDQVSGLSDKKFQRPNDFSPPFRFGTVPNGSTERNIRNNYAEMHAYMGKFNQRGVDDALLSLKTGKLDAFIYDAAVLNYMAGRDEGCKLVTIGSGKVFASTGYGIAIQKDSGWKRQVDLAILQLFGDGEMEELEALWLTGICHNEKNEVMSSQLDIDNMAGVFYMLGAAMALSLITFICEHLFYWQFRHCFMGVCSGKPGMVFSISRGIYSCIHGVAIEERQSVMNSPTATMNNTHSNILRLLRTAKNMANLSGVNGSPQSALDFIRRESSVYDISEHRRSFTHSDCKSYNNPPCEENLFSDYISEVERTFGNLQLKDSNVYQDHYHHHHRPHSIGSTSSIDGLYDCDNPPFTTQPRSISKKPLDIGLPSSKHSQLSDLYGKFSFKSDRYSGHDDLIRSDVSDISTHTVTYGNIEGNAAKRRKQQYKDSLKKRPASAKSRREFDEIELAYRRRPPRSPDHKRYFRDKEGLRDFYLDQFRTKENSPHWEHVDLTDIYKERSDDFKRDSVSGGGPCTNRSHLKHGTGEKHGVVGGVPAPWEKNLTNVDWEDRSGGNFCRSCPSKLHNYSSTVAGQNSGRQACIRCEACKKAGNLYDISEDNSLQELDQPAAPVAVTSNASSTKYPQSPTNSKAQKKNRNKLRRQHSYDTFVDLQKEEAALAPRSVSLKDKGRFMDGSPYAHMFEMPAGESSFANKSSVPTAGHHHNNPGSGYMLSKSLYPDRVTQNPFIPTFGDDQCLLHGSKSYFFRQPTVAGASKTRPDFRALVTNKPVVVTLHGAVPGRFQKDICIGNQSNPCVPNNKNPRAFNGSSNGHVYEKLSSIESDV

With `CC(F)(F)c1cccc(-c2cnn(Cc3cc[nH]n3)c2)c1` [Example 93, 3-[[4-(3-(1,1-difluoroethyl)-phenyl)pyrazol-1-yl]methyl]-1H-pyrazole Maleate], the IC50 in assay [1] (setting [3]) is 129 µM; in assay [2] (setting [4]) it was 0.0252 µM.
With `Cn1cc(Cn2cc(-c3ccc(F)c(OC(F)F)c3)cn2)cn1` [Example 19, 4-[3-(difluoromethoxy)-4-fluoro-phenyl]-1-[(1-methylpyrazol-4-yl)methyl]pyrazole], the IC50 is above 100 µM in assay [1] and 0.202 µM in assay [2] (setting [4]).
On to `Cn1cc(Cn2cc(-c3ccc(F)c(C(F)F)c3)cn2)cn1` [Example 33, 4-[3-(Difluoromethyl)-4-fluoro-phenyl]-1-[(1-methylpyrazol-4-yl)methyl]pyrazole], for which the half-inhibitory concentration (IC50) in assay [1] is above 100 µM; in assay [2] (setting [4]) it was 0.371 µM.
In the same order, the values of `Fc1cc(-c2cnn(Cc3cc[nH]n3)c2)cc(C(F)F)c1` [Example 47, 4-[3-(difluoromethyl)-5-fluoro-phenyl]-1-(1H-pyrazol-3-ylmethyl) pyrazole Succinate] are above 100 µM and 0.203 µM.
In the same order, the values of `Clc1ccc(-c2cnn(Cc3cc[nH]n3)c2)cc1` [Example 77, 4-(4-Chlorophenyl)-1-(1H-pyrazol-3-ylmethyl)pyrazole] are 16.9 µM and 1.04 µM.
The like results for `Cn1nccc1Cn1cc(-c2ccc(Cl)cc2)cn1` [Example 76, 4-(4-Chlorophenyl)-1-[(2-methylpyrazol-3-yl)methyl]pyrazole] were, in that order, 120 µM and 7.35 µM.
In the case of `Cn1cc(Cn2cc(-c3ccc(Cl)cc3)cn2)cn1` [Example 78, 4-(4-Chlorophenyl)-1-[(1-methylpyrazol-4-yl)methyl]pyrazole], the results for the IC50 in assay [1] and in assay [2] (setting [4]) were above 100 µM and 8.28 µM, respectively.
Regarding `COc1cc(F)ccc1-c1cnn(Cc2cc(C)nn2C)c1` [Example 68, 5-[[4-(4-fluoro-2-methoxy-phenyl)pyrazol-1-yl]methyl]-1,3-dimethyl-pyrazole Succinate], the IC50 in assay [1] (setting [3]) was determined as 93.6 µM. For the same compound, in assay [2] (setting [5]), the inhibition at 10 µM was determined as 26.3%. For the same compound, the inhibition at 1 µM in assay [2] is 8.7%.
Turning to `Cn1cc(Cn2cc(-c3ccc(F)c(C(C)(F)F)c3)cn2)cn1` [Example 45, 4-[3-(1,1-difluoroethyl)-4-fluoro-phenyl]-1-[(1-methylpyrazol-4-yl)methyl]pyrazole Succinate], the IC50 in assay [1] came to 67.8 µM; in assay [2] (setting [4]), 0.261 µM.
Turning to `CCn1ccc(Cn2cc(-c3ccc(Cl)c(OC(F)F)c3)cn2)n1` [Example 8, 3-[[4-[4-Chloro-3-(difluoromethoxy)phenyl]pyrazol-1-yl]methyl]-1-ethyl-pyrazole], the IC50 in assay [1] amounted to 41 µM; in assay [2] (setting [4]) it was 0.281 µM.
Take `FC(F)Oc1cccc(-c2cnn(Cc3cc[nH]n3)c2)c1` [Example 94, 3-[[4-(3-(difluoromethoxy)-phenyl)pyrazol-1-yl]methyl]-1H-pyrazole Maleate]: the IC50 in assay [1] (setting [3]) was found to be 120 µM; in assay [2] (setting [4]), 0.279 µM.
For the compound `CCn1ccc(Cn2cc(-c3ccc(F)c(C(F)F)c3)cn2)n1` [Example 38, 3-[[4-[3-(Difluoromethyl)-4-fluoro-phenyl]pyrazol-1-yl]methyl]-1-ethyl-pyrazole], the IC50 is above 100 µM in assay [1] and 0.443 µM in assay [2] (setting [4]).
Regarding `Cc1ccc(-c2cnn(Cc3ccn(C)n3)c2)cc1F` [Example 53, 3-[[4-(3-fluoro-4-methyl-phenyl)pyrazol-1-yl]methyl]-1-methyl-pyrazole Succinate], the IC50 in assay [2] (setting [4]) was determined as 3.84 µM.
Consider `Cn1ccc(Cn2cc(-c3cccc(Br)c3)cn2)n1` [Example 82, 3-[[4-(3-bromophenyl)pyrazol-1-yl]methyl]-1-methyl-pyrazole Succinate], for which the IC50 in assay [2] (setting [4]) turned out to be 2.62 µM.
For `CCCc1cc(Cn2cc(-c3ccc(Cl)c(OC(F)F)c3)cn2)n[nH]1` [Example 15, 3-[[4-[4-Chloro-3-(difluoromethoxy)phenyl]pyrazol-1-yl]methyl]-5-propyl-1H-pyrazole], the IC50 came to 7.93 µM in assay [1] (setting [3]) and 0.163 µM in assay [2] (setting [4]).
With `Cn1ccc(Cn2cc(-c3cccc(OC(F)(F)F)c3)cn2)n1` [Example 23, 1-Methyl-3-[[4-[3-(trifluoromethoxy)phenyl]pyrazol-1-yl]methyl]pyrazole Succinate], the values for the IC50 in assay [1] and in assay [2] (setting [4]) were 9.24 µM and 1.59 µM, respectively.
With `Cn1ccc(Cn2cc(-c3ccccc3)cn2)n1` [Example 85, 1-methyl-3-[(4-phenylpyrazol-1-yl)methyl]pyrazole], in assay [2] (setting [6]), the inhibition at 1 µM is 22.5%. In assay [2] (setting [5]), the inhibition at 10 µM was determined as 25.3%.
Consider `Cn1ccc(Cn2cc(-c3ccc(Br)cc3)cn2)n1` [Example 79, 3-[[4-(4-bromophenyl)pyrazol-1-yl]methyl]-1-methyl-pyrazole], for which the IC50 in assay [2] (setting [4]) was found to be 4.72 µM.
In the case of `Cn1ccc(Cn2cc(-c3ccccn3)cn2)n1` [Example 104, 2-(1-((1-methyl-1H-pyrazol-3-yl)methyl)-1H-pyrazol-4-yl)pyridine Succinate], the IC50 in assay [1] (setting [3]) is above 100 µM. In addition, the inhibition at 1 µM in assay [2] (setting [6]) turned out to be 20.9%. For the same compound, in assay [2], the inhibition at 10 µM was -0.6%.
Regarding `Cc1cc(Cn2cc(-c3ccc(Cl)c(C(F)(F)F)c3)cn2)n(C)n1` [Example 29, 5-[[4-[4-chloro-3-(trifluoromethyl)phenyl]pyrazol-1-yl]methyl]-1,3-dimethyl-pyrazole Succinate], the IC50 in assay [1] came to 17.9 µM; in assay [2] (setting [4]), 2.54 µM.
`Cc1cc(Cn2cc(-c3ccccc3)cn2)n(C)n1` [Example 86, 1,3-Dimethyl-5-[(4-phenylpyrazol-1-yl)methyl]pyrazole]: the inhibition at 1 µM in assay [2] (setting [6]) was determined as 3.8%. Moreover, in assay [2] (setting [5]), the inhibition at 10 µM was found to be 10.9%.
In assay [2] (setting [4]), `Cc1cc(Cn2cc(-c3cc(F)cc(F)c3)cn2)n(C)n1` [Example 83, 5-[[4-(3,5-difluorophenyl)pyrazol-1-yl]methyl]-1,3-dimethyl-pyrazole] gave an IC50 of 6.02 µM.
For the compound `Cn1ccc(Cn2cc(-c3cc(F)cc(F)c3)cn2)n1` [Example 84, 3-[[4-(3,5-difluorophenyl)pyrazol-1-yl]methyl]-1-methyl-pyrazole], in assay [2] (setting [6]), the inhibition at 1 µM was determined as 14.6%. In addition, the inhibition at 10 µM in assay [2] (setting [5]) is 45.7%.
Consider `Cc1cc(Cn2cc(-c3ccc(F)c(C)c3)cn2)n(C)n1` [Example 54, 5-[[4-(4-fluoro-3-methyl-phenyl)pyrazol-1-yl]methyl]-1,3-dimethyl-pyrazole Succinate], for which, in assay [1] (setting [3]), the IC50 was above 100 µM.
With `Cc1cc(Cn2cc(-c3ccccn3)cn2)n(C)n1` [Example 105, 2-(1-((1,3-dimethyl-1H-pyrazol-5-yl)methyl)-1H-pyrazol-4-yl)pyridine Succinate], the inhibition at 1 µM in assay [2] (setting [6]) was -1.3%. Besides, the inhibition at 10 µM in assay [2] (setting [5]) came out at 4.4%.
